ChEMBL document CHEMBL4665893, “Scalable Synthesis, In Vitro cccDNA Reduction, and In Vivo Antihepatitis B Virus Activity of a Phosphonomethoxydeoxythreosyl Adenine Prodrug” (J Med Chem, 2020)

Test: Plasma concentration in C57BL/6 mouse at 6 mg/kg, po administered as single dose after 0.25 to 24 hrs by LC/MS/MS analysis
Assay type: ADME, organism-based
Details: in vivo, time 0.25-24 hrs

Cp: < 1.01 ng/mL
SMILES: Nc1ncnc2c1ncn2[C@H]1C[C@@H](OCP(=O)(O)O)CO1
